According to patent US20260262643A1, “HERBICIDAL BENZOXAZINES” (FMC CORPORATION, priority 2022, published 2026):

What was measured:
barnyardgrass [1] = assay: Test C preemergence; type: in vivo, Echinochloa crusgalli; settings: 0 to 100 scale (0 no effect, 100 complete control)
Procedure, shortened: (§1)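 Soil-applied (pre) and foliar (post, 1–2 leaf, 2–10 cm) sprays; surfactant-containing non-phytotoxic solvent vehicle; loam/sand substrate. Readout: visual % control at 10 d, greenhouse, versus untreated.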

blackgrass [2] = assay: Test C preemergence; type: in vivo, Alopecurus myosuroides; settings: 0 to 100 scale (0 no effect, 100 complete control)
Procedure, shortened: as §1

corn [3] = assay: Test C preemergence; type: in vivo, Zea mays; settings: 0 to 100 scale (0 no effect, 100 complete control)
Procedure, shortened: as §1

green foxtail [4] = assay: Test C preemergence; type: in vivo, Setaria viridis; settings: 0 to 100 scale (0 no effect, 100 complete control)
Procedure, shortened: as §1

kochia [5] = assay: Test C preemergence; type: in vivo, Bassia scoparia; settings: 0 to 100 scale (0 no effect, 100 complete control)
Procedure, shortened: as §1

oat, wild [6] = assay: Test C preemergence; type: in vivo, Avena fatua; settings: 0 to 100 scale (0 no effect, 100 complete control)
Procedure, shortened: as §1

pigweed, palmer [7] = assay: Test C preemergence; type: in vivo, Amaranthus palmeri; settings: 0 to 100 scale (0 no effect, 100 complete control)
Procedure, shortened: as §1

ragweed [8] = assay: Test C preemergence; type: in vivo, Ambrosia artemisiifolia; settings: 0 to 100 scale (0 no effect, 100 complete control)
Procedure, shortened: as §1

ryegrass, Italian [9] = assay: Test C preemergence; type: in vivo, Lolium multiflorum; settings: 0 to 100 scale (0 no effect, 100 complete control)
Procedure, shortened: as §1

soybean [10] = assay: Test C preemergence; type: in vivo, Glycine max; settings: 0 to 100 scale (0 no effect, 100 complete control)
Procedure, shortened: as §1

wheat [11] = assay: Test C preemergence; type: in vivo, Triticum aestivum; settings: 0 to 100 scale (0 no effect, 100 complete control)
Procedure, shortened: as §1

barnyardgrass [12] = assay: Test C postemergence; type: in vivo, Echinochloa crusgalli; settings: 10 days
Procedure, shortened: as §1

blackgrass [13] = assay: Test C postemergence; type: in vivo, Alopecurus myosuroides; settings: 10 days
Procedure, shortened: as §1

corn [14] = assay: Test C postemergence; type: in vivo, Zea mays; settings: 10 days
Procedure, shortened: as §1

green foxtail [15] = assay: Test C postemergence; type: in vivo, Setaria viridis; settings: 10 days
Procedure, shortened: as §1

kochia [16] = assay: Test C postemergence; type: in vivo, Bassia scoparia; settings: 10 days
Procedure, shortened: as §1

oat, wild [17] = assay: Test C postemergence; type: in vivo, Avena fatua; settings: 10 days
Procedure, shortened: as §1

pigweed, palmer [18] = assay: Test C postemergence; type: in vivo, Amaranthus palmeri; settings: 10 days
Procedure, shortened: as §1

ragweed [19] = assay: Test C postemergence; type: in vivo, Ambrosia artemisiifolia; settings: 10 days
Procedure, shortened: as §1

ryegrass, Italian [20] = assay: Test C postemergence; type: in vivo, Lolium multiflorum; settings: 10 days
Procedure, shortened: as §1

soybean [21] = assay: Test C postemergence; type: in vivo, Glycine max; settings: 10 days
Procedure, shortened: as §1

wheat [22] = assay: Test C postemergence; type: in vivo, Triticum aestivum; settings: 10 days
Procedure, shortened: as §1

galium = assay: Test C postemergence; type: in vivo, Galium aparine; settings: 10 days
Procedure, shortened: as §1

horseweed = assay: Test C postemergence; type: in vivo, Erigeron canadensis; settings: 10 days
Procedure, shortened: as §1

barnyardgrass [23] = assay: Test D flooded paddy test; type: in vivo, Echinochloa crus-galli; settings: 250 g ai/ha, applied to paddy water, visual rating after 13 to 14 days, scale 0 to 100 (0 no effect, 100 complete control)
Procedure, shortened: (§2)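 2-leaf plants; flood 3 cm above soil; compound dosed into paddy water; greenhouse 13–14 d; visual rating vs controls, 0–100 (100 = complete control); dash = not tested.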

ducksalad = assay: Test D flooded paddy test; type: in vivo, Heteranthera limosa; settings: 250 g ai/ha, applied to paddy water, visual rating after 13 to 14 days, scale 0 to 100 (0 no effect, 100 complete control)
Procedure, shortened: as §2

rice = assay: Test D flooded paddy test; type: in vivo, Oryza sativa; settings: 250 g ai/ha, applied to paddy water, visual rating after 13 to 14 days, scale 0 to 100 (0 no effect, 100 complete control)
Procedure, shortened: as §2

sedge, umbrella = assay: Test D flooded paddy test; type: in vivo, Cyperus difformis; settings: 250 g ai/ha, applied to paddy water, visual rating after 13 to 14 days, scale 0 to 100 (0 no effect, 100 complete control)
Procedure, shortened: as §2

[24] = Preemergence, 500 g ai/ha, visual rating after 10 days
[25] = Test C, preemergence, 125 g ai/ha
[26] = 125 g ai/ha, postemergence, 0 to 100 scale, 0 no effect, 100 complete control
[27] = Postemergence, 500 g ai/ha, visual 0 to 100 scale (0 no effect, 100 complete control)

CC(C)c1ncn(-c2cc3c(c(C(=O)N4C[C@H](C)Oc5c(Cl)cccc54)c2)CCC3)n1 [Compound 174]
Plant response rating, Barnyardgrass (barnyardgrass [1]; [24]): 100
Barnyardgrass plant response rating (barnyardgrass [1]; [25]): 80
Plant response rating, Blackgrass (blackgrass [2]; [24]): 80
Blackgrass plant response rating (blackgrass [2]; [25]): 70
Plant response rating, Corn (corn [3]; [24]): 50
Corn plant response rating (corn [3]; [25]): 10
Plant response rating, Foxtail, Green (green foxtail [4]; [24]): 100
Foxtail, Green plant response rating (green foxtail [4]; [25]): 100
Plant response rating, Kochia (kochia [5]; [24]): 90
Kochia plant response rating (kochia [5]; [25]): 70
Plant response rating, Oat, Wild (oat, wild [6]; [24]): 80
Oat, Wild plant response rating (oat, wild [6]; [25]): 20
Plant response rating, Pigweed, Palmer (pigweed, palmer [7]; [24]): 100
Pigweed, Palmer plant response rating (pigweed, palmer [7]; [25]): 100
Plant response rating, Ragweed (ragweed [8]; [24]): 10
Ragweed plant response rating (ragweed [8]; [25]): 0
Plant response rating, Ryegrass, Italian (ryegrass, Italian [9]; [24]): 90
Ryegrass, Italian plant response rating (ryegrass, Italian [9]; [25]): 80
Plant response rating, Soybean (soybean [10]; [24]): 100
Soybean plant response rating (soybean [10]; [25]): 70
Plant response rating, Wheat (wheat [11]; [24]): 10
Wheat plant response rating (wheat [11]; [25]): 0
Plant response rating, Barnyardgrass (barnyardgrass [12]; [26]): 50
Plant response rating, Barnyardgrass (barnyardgrass [12]; [27]): 60
Plant response rating, Blackgrass (blackgrass [13]; [26]): 60
Plant response rating, Blackgrass (blackgrass [13]; [27]): 90
Plant response rating, Corn (corn [14]; [26]): 70
Plant response rating, Corn (corn [14]; [27]): 80
Plant response rating, Foxtail, Green (green foxtail [15]; [26]): 70
Plant response rating, Foxtail, Green (green foxtail [15]; [27]): 90
Plant response rating, Kochia (kochia [16]; [26]): 90
Plant response rating, Kochia (kochia [16]; [27]): 100
Plant response rating, Oat, Wild (oat, wild [17]; [26]): 50
Plant response rating, Oat, Wild (oat, wild [17]; [27]): 70
Plant response rating, Pigweed, Palmer (pigweed, palmer [18]; [26]): 90
Plant response rating, Pigweed, Palmer (pigweed, palmer [18]; [27]): 100
Plant response rating, Ragweed (ragweed [19]; [26]): 60
Plant response rating, Ragweed (ragweed [19]; [27]): 70
Plant response rating, Ryegrass, Italian (ryegrass, Italian [20]; [26]): 50
Plant response rating, Ryegrass, Italian (ryegrass, Italian [20]; [27]): 70
Plant response rating, Soybean (soybean [21]; [26]): 100
Plant response rating, Soybean (soybean [21]; [27]): 100
Plant response rating, Wheat (wheat [22]; [26]): 20
Plant response rating, Wheat (wheat [22]; [27]): 40
Plant response rating, Galium (galium; [26]): 100
Plant response rating, Galium (galium; [27]): 100
Plant response rating, Horseweed (horseweed; [26]): 0
Plant response rating, Horseweed (horseweed; [27]): 30
Plant response rating, Barnyardgrass (Flood) (barnyardgrass [23]): 0
Plant response rating, Ducksalad (Flood) (ducksalad): 0
Plant response rating, Rice (Flood) (rice): 0
Plant response rating, Sedge, Umbrella (Flood) (sedge, umbrella): 0
